Literature values in patent US9603852B2, “Treatment of obesity and pulmonary arterial hypertension” (ALBERT EINSTEIN COLLEGE OF MEDICINE, INC., priority 2013, dated 2017).
Where two headings read alike, the source gives them in different places.

Molecular target: T1, rat PGT (Rattus norvegicus, UniProt Q00910)
T1 construct: expressed in transfected cells
Conditions: cited from earlier work; for Inh (% of Ctl) 2.5 μM: 2.5 μM compound; for Inh (% of Ctl) 0.5 μM: 0.5 μM compound; for Inh (% of Ctl) 0.1 μM: 0.1 μM compound; for Inh (% of Ctl) 0.01 μM: 0.01 μM compound; for Inh (% of Ctl) 0.01 μM / Inh (% of Ctl) 0.05 μM: second part of Table 1; for Inh (% of Ctl) 0.05 μM: 0.05 μM compound

[1] = second part of Table 1 (Cpd 130-151)

Compound | Inh (% of Ctl) 0.01 μM | Inh (% of Ctl) 0.05 μM | Inh (% of Ctl) 0.1 μM [1] | further results
CCCCCCCC(=O)c1ccc(Nc2nc(NCCOCCOCCNC(=O)c3ccccc3)nc(Nc3ccc(O)cc3)n2)cc1 [Compound 76] |  |  |  | Inh (% of Ctl) 2.5 μM: 39.9 % of Ctl
O=C(NCCOCCOCCNc1nc(Nc2ccc(O)cc2)nc(Oc2ccc(C(=O)NCc3ccccc3)cc2)n1)c1ccccc1 [Compound 83] |  |  |  | Inh (% of Ctl) 0.5 μM: 4.1 % of Ctl; Inh (% of Ctl) 2.5 μM: 10.4 % of Ctl; Inh (% of Ctl) 5 μM (5 μM compound): 42.0 % of Ctl; IC50 ([3H]PGE2 uptake, MDCK cells with rat PGT): 609 nM
O=C(NCCOCCOCCNc1nc(Nc2ccc(O)cc2)nc(Nc2ccc(C(=O)NCc3ccccc3)cc2)n1)c1ccccc1 [Compound 116] |  |  |  | Inh (% of Ctl) 0.1 μM (first part of Table 1): 36.4 % of Ctl; Inh (% of Ctl) 0.5 μM (0.5 µM): 59.4 % of Ctl
O=C(NCCOCCOCCNc1nc(Nc2ccc(O)cc2)nc(Nc2ccc(C(=O)NCc3cc(F)cc(F)c3)cc2)n1)c1ccccc1 [Compound 130] | 41.6 % of Ctl | 73.2 % of Ctl | 81.7 % of Ctl | 
O=C(NCCOCCOCCNc1nc(Nc2ccc(O)cc2)nc(Nc2ccc(C(=O)NCc3ccc(F)cc3F)cc2)n1)c1ccccc1 [Compound 131] | 22.3 % of Ctl | 47.0 % of Ctl | 74.3 % of Ctl | 
N[C@@H](C(=O)NCCOCCNc1nc(Nc2ccc(O)cc2)nc(Nc2ccc(C(=O)NCc3ccccc3)cc2)n1)c1ccccc1 [Compound 132] | 15.0 % of Ctl | 22.1 % of Ctl | 32.4 % of Ctl | 
N[C@H](Cc1ccccc1)C(=O)NCCOCCNc1nc(Nc2ccc(O)cc2)nc(Nc2ccc(C(=O)NCc3ccccc3)cc2)n1 [Compound 133] | 4.3 % of Ctl | 12.6 % of Ctl | 19.4 % of Ctl | 
O=C(NCc1ccccc1)c1ccc(Nc2nc(NCCOCCNC(=O)c3ccccc3C(F)(F)F)nc(Nc3ccc(O)cc3)n2)cc1 [Compound 134] | 14.0 % of Ctl | 27.7 % of Ctl | 46.7 % of Ctl | 
O=C(NCCOCCNc1nc(Nc2ccc(O)cc2)nc(Nc2ccc(C(=O)NCc3ccccc3)cc2)n1)c1ccncc1 [Compound 135] | 13.2 % of Ctl | 28.4 % of Ctl |  | 
O=C(NCCOCCNc1nc(Nc2ccc(O)cc2)nc(Nc2ccc(C(=O)NCc3ccccc3)cc2)n1)c1ccc(F)cc1 [Compound 136] | 33.3 % of Ctl | 64.1 % of Ctl | 77.9 % of Ctl | 
COc1ccc(C(=O)NCCOCCNc2nc(Nc3ccc(O)cc3)nc(Nc3ccc(C(=O)NCc4ccccc4)cc3)n2)cc1 [Compound 137] | 42.0 % of Ctl | 64.9 % of Ctl | 75.6 % of Ctl | 
O=C(NCCOCCNc1nc(Nc2ccc(O)cc2)nc(Nc2ccc(C(=O)NCc3ccccc3)cc2)n1)Nc1ccccc1 [Compound 139] | 16.3 % of Ctl | 30.7 % of Ctl | 39.0 % of Ctl | 
CC(=O)NCCOCCNc1nc(Nc2ccc(O)cc2)nc(Nc2ccc(C(=O)NCc3ccccc3)cc2)n1 [Compound 140] | 11.5 % of Ctl | 4.5 % of Ctl | 10.9 % of Ctl | 
O=C(NCc1ccccc1)c1ccc(Nc2nc(NCCOCCNCc3ccccc3)nc(Nc3ccc(O)cc3)n2)cc1 [Compound 141] | 12.7 % of Ctl | 22.0 % of Ctl | 43.5 % of Ctl | 
O=C(NCCOCCOCCNc1nc(Nc2ccc(C(=O)NCc3ccc(F)cc3)cc2)nc(Nc2ccc3[nH]cnc3c2)n1)c1ccccc1 [Compound 142] | 8.4 % of Ctl | 20.1 % of Ctl | 39.2 % of Ctl | 
O=C(NCCOCCOCCNc1nc(Nc2ccc(C(=O)NCc3ccc(F)cc3)cc2)nc(Nc2ccc(O)c(F)c2)n1)c1ccccc1 [Compound 143] | 33.7 % of Ctl | 57.8 % of Ctl | 69.5 % of Ctl | 
COC(=O)c1cc(Nc2nc(NCCOCCOCCNC(=O)c3ccccc3)nc(Nc3ccc(C(=O)NCc4ccc(F)cc4)cc3)n2)ccc1O [Compound 144] | 3.4 % of Ctl | 5.8 % of Ctl | 10.8 % of Ctl | 
O=C(NCc1ccc(F)cc1)c1ccc(Nc2nc(Nc3ccc(O)cc3)nc(Nc3ccc(O)cc3)n2)cc1 [Compound 145] | 7.1 % of Ctl | 3.1 % of Ctl | 6.9 % of Ctl | 
O=C(NCCOCCNc1nc(Nc2ccc(O)cc2)nc(Nc2ccc(C(=O)NCc3ccc(F)cc3)cc2)n1)c1ccccc1 [Compound 147] | 44.5 % of Ctl | 70.2 % of Ctl | 79.5 % of Ctl | 
O=C(NCc1ccc(F)cc1)c1ccc(Nc2nc(Nc3ccc(O)cc3)nc(Nc3ccc(C(=O)NCc4ccc(F)cc4)cc3)n2)cc1 [Compound 148] | 8.4 % of Ctl | 12.9 % of Ctl | 20.7 % of Ctl | 
O=C(NCc1ccc(F)cc1)c1ccc(Nc2nc(Nc3ccc(O)cc3)nc(Nc3ccc(CNCc4ccccc4)cc3)n2)cc1 [Compound 149] | 3.8 % of Ctl | 9.1 % of Ctl | 17.6 % of Ctl | 
O=C(O)c1cccc(Nc2nc(NCCOCCOCCNC(=O)c3ccccc3)nc(Nc3ccc(C(=O)NCc4ccc(F)cc4)cc3)n2)c1 [Compound 150] | 4.2 % of Ctl | 14.3 % of Ctl | 23.9 % of Ctl | 
O=C(NCCOCCOCCNc1nc(NCCOCCOCCNC(=O)c2ccccc2)nc(Nc2ccc(O)cc2)n1)c1ccccc1 [Compound 151] |  | 0.7 % of Ctl | 8.4 % of Ctl | 
